Key:
HT-29 cells [1] = assay: Growth inhibition of HT-29 cells by [3H]-TdR incorporation; format: cell-based; details: Homo sapiens, [3H]-TdR incorporation during last 6 h of 3-day culture, read-out: growth inhibitory activity (IC50)
Description: HT-29 cells were cultured in McCoy's 5a medium supplemented with 10% (v/v) fetal bovine serum and antibiotics. ACHN and HEK293T cells were maintained in Dulbecco's modified Eagle's medium supplemented with 10% (v/v) fetal bovine serum and antibiotics in a humidified CO2 incubator. The growth inhibitory activities of compounds toward HT-29 cells were determined by [^3H]-TdR incorporation for the last 6 h of a 3-day culture period. […] The lysed cells were then homogenized by 20 strokes of a loose-fitting Dounce homogenizer and centrifuged for 6 min at 4,300×g to separate the nuclei from the cytoplasmic fraction. The cytoplasmic fraction was ultracentrifuged for 1 h at 150,000×g and the supernatant was dialyzed against a buffer containing 20 mM HEPES (pH 7.9), 20% (v/v) glycerol, 0.1 M KCl, 0.2 mM EDTA, 0.5 mM PMSF and 0.5 mM DTT for 5 h at 4°C. After centrifugation for 20 min at 15,000×g, the supernatant was collected as the cytosolic fraction.

Raf kinase = Raf kinase activity, phosphorylation of MBP; details: for phosphorylation of the Raf kinase substrate MBP: at concentrations below 10 μM
MEK1/2 = assay: Competitive pull-down with JTP-74100-conjugated resin from HT-29 cytosolic fraction; format: binding, human; details: 46-kDa band on SDS-PAGE
HT-29 cells [2] = assay: Western blot of MEK and ERK phosphorylation in HT-29 cells; format: cell-based, human; details: for MEK phosphorylation status after pulse treatment: 2 h treatment then washout
ACHN cells = assay: Western blot of MEK and ERK phosphorylation in ACHN cells; format: cell-based, human; details: ACHN cells (K-Ras mutated, B-Raf unmutated), 24 h
Description: (§1) Cultured cells were treated with various compounds and then lysed in lysis buffer (50 mM Tris-HCl pH 7.4, 150 mM NaCl, 1 mM EGTA, 1 mM Na3Vo4, 1% Triton X-100 and EDTA-free protease inhibitor cocktail). The cell lysates were collected and centrifuged, and the supernatants were subjected to SDS-PAGE. After the electrophoresis, the proteins were transferred onto PVDF membranes at 1 mA/cm^2 for 1 h. The membranes were incubated in blocking solution (Blockace; Nacalai Tesque, Kyoto, Japan) and washed with PBS containing 0.1% Tween 20 (PBS/T). The membranes were then incubated with the primary antibody, washed three times with PBS/T and incubated with the secondary antibody. After washing with PBS/T, the membranes were incubated with ECL-Plus or ECL-Advanced western blot reagents (GE Healthcare, Little Chalfont, Buckinghamshire, UK) for 5 min, exposed to ECL Hyperfilm and visualized using a LAS3000 imager (Fujifilm).

[3] = system: HT-29 cells and ACHN cells; assay: Western blot of downstream signaling molecules (c-Myc, cyclin D1, p15INK4b, p27KIP1); format: cell-based, human; details: 24 h treatment
Description: as §1
Supplemental Table: Identif ied Peptide Sequences of 46 kDa Proteins.
ACCESSION Start - End Obsrved Mr(expt) Mr(calc) Sequence
Supp lemental Figure: Alterations of downstream signaling molecules in cancer cells by
(A, B) HT-29 cells (A) and ACHN cells (B) were treated with the
indicated concentrations of each compound for 24 h,same as the experiment of F ig u re 3A. And
the cell lysates were analyzed by western blotting using antibodies specific to c-M yc (Upstate […]

p-MEK1 = biological target: T1, p-MEK1 (Homo sapiens, UniProt Q02750); assay: Kinetic (double-reciprocal) analysis of MEK inhibition in the MEK-ERK reaction; format: biochemical; details: p-MEK-ATP complex, double-reciprocal plots vs ATP
T1 construct: purchased Upstate Technology (Waltham, MA)

various cancer cells = assay: Western blot of MEK and ERK phosphorylation in various cancer cell lines; format: cell-based; details: 2 h
Description: as §1

[4] = set-up: method as in PMID 22805291; details: orally administered, cancer patients, phase I study; cited from earlier work
[5] = cited from earlier work
B-Raf = B-Raf (Homo sapiens, UniProt P15056, V600E); assay: biochemical
Sequence of B-Raf (P15056 whole entry V600E): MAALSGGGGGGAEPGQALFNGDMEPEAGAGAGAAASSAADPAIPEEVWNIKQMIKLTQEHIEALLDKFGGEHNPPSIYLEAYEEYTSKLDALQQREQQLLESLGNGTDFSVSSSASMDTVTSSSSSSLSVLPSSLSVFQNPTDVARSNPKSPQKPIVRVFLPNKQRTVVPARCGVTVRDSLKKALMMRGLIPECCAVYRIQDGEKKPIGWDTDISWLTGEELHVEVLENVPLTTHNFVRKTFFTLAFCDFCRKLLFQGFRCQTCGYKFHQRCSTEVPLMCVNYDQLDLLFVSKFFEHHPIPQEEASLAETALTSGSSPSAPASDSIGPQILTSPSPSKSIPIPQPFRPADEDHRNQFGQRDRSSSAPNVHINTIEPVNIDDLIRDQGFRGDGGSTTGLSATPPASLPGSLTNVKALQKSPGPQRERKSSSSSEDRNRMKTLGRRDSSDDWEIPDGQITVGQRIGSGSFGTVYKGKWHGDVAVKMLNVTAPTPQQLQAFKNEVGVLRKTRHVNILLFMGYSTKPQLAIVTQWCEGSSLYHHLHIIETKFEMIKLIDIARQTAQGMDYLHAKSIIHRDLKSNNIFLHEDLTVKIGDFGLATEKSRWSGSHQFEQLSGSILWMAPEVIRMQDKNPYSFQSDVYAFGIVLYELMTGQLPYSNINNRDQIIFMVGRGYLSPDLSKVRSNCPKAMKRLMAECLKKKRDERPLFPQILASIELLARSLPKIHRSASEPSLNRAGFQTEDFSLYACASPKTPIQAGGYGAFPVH

c-Raf = c-Raf (Homo sapiens, UniProt P04049); assay: Raf/MBP kinase assay, c-Raf
Sequence of c-Raf (P04049 306-648): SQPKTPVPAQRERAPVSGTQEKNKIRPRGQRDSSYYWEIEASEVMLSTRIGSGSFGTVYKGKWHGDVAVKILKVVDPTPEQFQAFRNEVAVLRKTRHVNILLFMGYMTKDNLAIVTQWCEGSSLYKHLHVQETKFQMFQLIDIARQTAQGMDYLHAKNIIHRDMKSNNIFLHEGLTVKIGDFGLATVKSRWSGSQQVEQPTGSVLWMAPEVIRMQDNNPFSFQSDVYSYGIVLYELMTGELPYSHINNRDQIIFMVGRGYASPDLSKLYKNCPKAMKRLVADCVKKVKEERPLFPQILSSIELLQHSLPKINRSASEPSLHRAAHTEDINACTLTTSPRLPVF

Inactive u-MEK (K97R) = Inactive u-MEK (K97R) (Homo sapiens, UniProt Q02750, K97R); assay: Temperature-dependent CD analysis of u-MEK; details: 10 μM compound, 3 μM u-MEK; u-MEK alone 50.2 °C

In the case of `CCCCC(=O)NCCC(=O)Nc1cccc(-n2c(=O)n(C3CC3)c(=O)c3c(Nc4ccc(I)cc4F)n(C)c(=O)c(C)c32)c1` [pentanoyl JTP-74100], the IC50 (HT-29 cells [1]) is reported as 2.1 nM.
In the case of `CNC(=O)c1cc(Oc2ccc(NC(=O)Nc3ccc(Cl)c(C(F)(F)F)c3)cc2)ccn1` [BAY 43-9006], the “concentration that inhibited Raf kinase activity” value (Raf kinase; same conditions as Raf/MBP assay, data not shown) is reported as 0.1 µM.
In the case of `Cn1c(=O)cc(Nc2ccc(I)cc2F)c2c(=O)n(C3CC3)c(=O)n(-c3cccc(NS(C)(=O)=O)c3)c21` [JTP-70945], the IC50 (HT-29 cells [1]) is reported as 0.39 nM and the “concentration needed to clearly compete with JTP-74100-immobilized resin for binding to MEK” value (“concentration needed to clearly compete” below) (MEK1/2) is reported as “above 10 μM”.
In the case of `O=C(NOC[C@H](O)CO)c1ccc(F)c(F)c1Nc1ccc(I)cc1F` [PD0325901, reference compound], the IC50 (HT-29 cells [1]) is reported as 3.4 nM, the “time for p-ERK level to return to nearly normal level after removal” value (HT-29 cells [2]; 100 nM for 2 h then washout) is reported as at most 1 h and the “MEK phosphorylation status after pulse treatment” value (HT-29 cells [2]) is reported as “did not affect the MEK phosphorylation status”. The ERK phosphorylation (HT-29 cells [2]; 24 h) was “inhibited ERK phosphorylation”, the “accumulation of p-MEK” value (ACHN cells) was “induced significant accumulation of p-MEK” and the “concentration at which accumulation of p15INK4b and p27KIP1 and decrease of c-Myc and Cyclin D1 were observed” value [3] was 10 nM. The “phosphorylation of the Raf kinase substrate MBP” value (Raf kinase) was “not inhibited”.
For `N#CC(=C(/N)Sc1ccccc1N)/C(C#N)=C(\N)Sc1ccccc1N` [U0126, reference compound], the “concentration needed to clearly compete” value (MEK1/2) was 100 µM.
For `CC(=O)Nc1cccc(-n2c(=O)n(C3CC3)c(=O)c3c(Nc4ccc(I)cc4F)n(C)c(=O)c(C)c32)c1` [JTP-74057], the IC50 (HT-29 cells [1]) was 0.57 nM, the “Ki' (MEK/ATP vs. compound)” value (p-MEK1) was 290 ± 80 nM and the “time at which p-MEK level was decreased” value (HT-29 cells [2]; 10 nM) was at most 15 min. For the same compound, the “time at which p-MEK was almost ablated” value (HT-29 cells [2]; 10 nM) was 30 min, the “MEK phosphorylation status after pulse treatment” value (HT-29 cells [2]) was “disappearance of p-MEK was sustained for a considerable period” and the ERK phosphorylation (HT-29 cells [2]; 24 h) was “inhibited ERK phosphorylation”. For the same compound, the p-MEK level (HT-29 cells [2]; 24 h) was “decreased the p-MEK level”, the “accumulation of p-MEK” value (ACHN cells) was “did not significantly, or slightly if any, induce accumulation of p-MEK” and the “p-MEK levels in HCT-15, LS-174T, T84 and LoVo cells” value (various cancer cells; 100 nM) was “did not decrease or decrease to a lesser extent”. For the same compound, the “p-MEK levels in HT-29, COLO-205, HCT-116, SW480 and SW620 cells” value (various cancer cells; 100 nM (HT-29 10 nM)) was “decreased”, the “ERK phosphorylation in various cancer cell lines” value (various cancer cells; 100 nM (HT-29 10 nM), 10 cell lines) was “efficiently inhibited in almost all cell lines, except for COLO-320DM” and the “concentration at which accumulation of p15INK4b and p27KIP1 and decrease of c-Myc and Cyclin D1 were observed” value [3] was 1 nM. The t1/2 [4] was “about 4 days”, the “ERK phosphorylation in grafted cancer tissues” value ([5]; animals, after oral administration) was “inhibited ERK phosphorylation” and the “half-life in the blood” value ([5]; in vivo, po) was “long half-life”. The IC50 (B-Raf) was over 10000 nM, the IC50 (c-Raf) was over 10000 nM and the “Tm of u-MEK with compound (CD)” value (Inactive u-MEK (K97R)) was 57.5 °C. The “phosphorylation of the Raf kinase substrate MBP” value (Raf kinase) was “not inhibited”.
With `COc1ccccc1Nc1cc(=O)n(C)c2c1c(=O)n(-c1ccccc1)c(=O)n2-c1ccccc1` [JTP-65634] the IC50 (HT-29 cells [1]) was over 10000 nM and the “concentration needed to clearly compete” value (MEK1/2) was over 100 µM.
Compound `CCCCC(=O)NCCC(=O)Nc1cccc(-n2c(=O)n(C3CC3)c(=O)c3c(Nc4ccccc4F)n(C)c(=O)c(C)c32)c1` [pentanoyl JTP-74099] has an IC50 (HT-29 cells [1]) of 840 nM.
